Measured values reported in ChEMBL document CHEMBL3885861, “Open TG-GATES”.

Organism: Rattus norvegicus
Test: Open TG-GATES - Regimen: Daily Repeat
Type: toxicity, organism-based, Sprague-Dawley
Parameters: regimen Daily Repeat, gender Male, age 6 weeks
Conditions: in vivo, po, route gavage; for gamma-GTP / ALP / ALT / AST / BUN / CRE / Ca / Cl / DBIL / GLC / IP / K / LDH / Na / PL / RALB / TBIL / TC / TG / TP: tissue Plasma; for KIDNEY_L / KIDNEY_R / KIDNEY_TOTAL: tissue Kidney
[1] = 25 mg/kg, 72 h, dose level Low, time 3 day
[2] = 25 mg/kg, 72 h, tissue Blood, dose level Low, time 3 day
[3] = 25 mg/kg, […], dose level Low, time 7 day
[4] = 25 mg/kg, […], dose level Low, time 14 day
[5] = 25 mg/kg, […], dose level Low, time 28 day
[6] = 25 mg/kg, […], tissue Blood, dose level Low, time 7 day
[7] = 25 mg/kg, […], tissue Blood, dose level Low, time 14 day
[8] = 25 mg/kg, […], tissue Blood, dose level Low, time 28 day

## O=C1CN(/N=C/c2ccc(-c3ccc([N+](=O)[O-])cc3)o2)C(O)=N1 [DANTROLENE]
0 mg/kg, […], dose level Control, time 28 day
  gamma-GTP: 1.2 IU/L
[1]
  TERMINAL_BW: 228.7 g
  KIDNEY_L: 1.1 g
  KIDNEY_R: 1.1 g
  KIDNEY_TOTAL: 2.2 g
  ALP: 873.2 IU/L
  ALT: 37.8 IU/L
  AST: 75 IU/L
  BUN: 19.6 mg/dL
  CRE: 0.6 mg/dL
  Ca: 10.8 mg/dL
  Cl: 104.4 meq/L
  DBIL: 0.004 mg/dL
  GLC: 194.8 mg/dL
  IP: 6.2 mg/dL
  K: 4.5 meq/L
  LDH: 102.4 IU/L
  Na: 139.8 meq/L
  PL: 151.8 mg/dL
  RALB: 4 g/dL
  TBIL: 0.3 mg/dL
  TC: 73.8 mg/dL
  TG: 122.4 mg/dL
  TP: 5.8 g/dL
  gamma-GTP: 0.6 IU/L
[2]
  APTT: 19.4 s
  Bas: 0%
  Eos: 1%
  Fbg: 221.4 mg/dL
  Hb: 13.7 g/dL
  Lym: 78%
  MCH: 21.8 pg
  MCHC: 33.8%
  MCV: 64.6 fL
  Mono: 8.4%
  Plat: 138.1 x10_4/uL
  RBC: 624.8 x10_4/ul
  Ret: 5.3%
  WBC: 107 x10_2/uL
[3]
  TERMINAL_BW: 252.5 g
  KIDNEY_L: 1.1 g
  KIDNEY_R: 1.2 g
  KIDNEY_TOTAL: 2.3 g
  ALP: 808 IU/L
  ALT: 35 IU/L
  AST: 68.8 IU/L
  BUN: 17 mg/dL
  CRE: 0.6 mg/dL
  Ca: 10.8 mg/dL
  Cl: 107.8 meq/L
  DBIL: 0.014 mg/dL
  GLC: 192.8 mg/dL
  IP: 6.1 mg/dL
  K: 5 meq/L
  LDH: 121.4 IU/L
  Na: 138.8 meq/L
  PL: 151.4 mg/dL
  RALB: 3.9 g/dL
  TBIL: 0.4 mg/dL
  TC: 77 mg/dL
  TG: 92.6 mg/dL
  TP: 5.7 g/dL
  gamma-GTP: 1 IU/L
[4]
  TERMINAL_BW: 308.4 g
  KIDNEY_L: 1.2 g
  KIDNEY_R: 1.3 g
  KIDNEY_TOTAL: 2.5 g
  ALP: 770 IU/L
  ALT: 33.2 IU/L
  AST: 69.6 IU/L
  BUN: 18.6 mg/dL
  CRE: 0.6 mg/dL
  Ca: 10.6 mg/dL
  Cl: 104.2 meq/L
  DBIL: 0.01 mg/dL
  GLC: 198 mg/dL
  IP: 6.1 mg/dL
  K: 4.3 meq/L
  LDH: 112.8 IU/L
  Na: 141.6 meq/L
  PL: 148.8 mg/dL
  RALB: 3.9 g/dL
  TBIL: 0.3 mg/dL
  TC: 67.8 mg/dL
  TG: 150.4 mg/dL
  TP: 6 g/dL
  gamma-GTP: 0.8 IU/L
[5]
  TERMINAL_BW: 376.7 g
  KIDNEY_L: 1.4 g
  KIDNEY_R: 1.5 g
  KIDNEY_TOTAL: 2.9 g
  ALP: 601.2 IU/L
  ALT: 28.6 IU/L
  AST: 55.8 IU/L
  BUN: 18.2 mg/dL
  CRE: 0.5 mg/dL
  Ca: 10.6 mg/dL
  Cl: 107.2 meq/L
  DBIL: 0.018 mg/dL
  GLC: 179 mg/dL
  IP: 5 mg/dL
  K: 4.3 meq/L
  LDH: 106.6 IU/L
  Na: 140.4 meq/L
  PL: 154.8 mg/dL
  RALB: 4 g/dL
  TBIL: 0.3 mg/dL
  TC: 76.4 mg/dL
  TG: 145.8 mg/dL
  TP: 6.2 g/dL
[6]
  APTT: 16.1 s
  Bas: 0%
  Eos: 1.2%
  Fbg: 215 mg/dL
  Hb: 14.4 g/dL
  Lym: 79%
  MCH: 20.9 pg
  MCHC: 33.9%
  MCV: 61.5 fL
  Mono: 8%
  Plat: 108.3 x10_4/uL
  RBC: 689.4 x10_4/ul
  Ret: 4.6%
  WBC: 121.3 x10_2/uL
[7]
  APTT: 17.2 s
  Bas: 0%
  Eos: 0.8%
  Fbg: 222.2 mg/dL
  Hb: 14.8 g/dL
  Lym: 85.2%
  MCH: 20.3 pg
  MCHC: 33.8%
  MCV: 60.1 fL
  Mono: 4.8%
  Plat: 122.4 x10_4/uL
  RBC: 726.6 x10_4/ul
  Ret: 3.9%
  WBC: 111.4 x10_2/uL
[8]
  APTT: 17.2 s
  Bas: 0%
  Eos: 1%
  Fbg: 211 mg/dL
  Hb: 15.6 g/dL
  Ht: 45.9%
  Lym: 82%
  MCH: 20 pg
  MCHC: 34%
  MCV: 58.9 fL
  Mono: 4.8%
  Plat: 112.7 x10_4/uL
  RBC: 779 x10_4/ul
  Ret: 2.9%
